Measured values reported in patent EP4620949A1, “ACKR3 MODULATORS FOR CARDIOVASCULAR OR ANTIPLATELET THERAPY” (Eberhard Karls Universität Tübingen (Medizinische Fakultät), priority 2024, dated 2025).
Several values for one entry are separate records, joined by “and”; a condition that tells them apart may be missing. Identical values can stand only once.

Tested on: HEK293 cells
Assay: RealTime-Glo MT cell viability assay
Assay type: cell-based
Conditions: concentrations of 1 µM and below, up to 72 h
Procedure: Cell viability studies. […].
Cell Viability Assay. RealTime-Glo™ MT Cell Viability Assay (Promega Corporation, Madison, WI, USA) was performed using THP1 cells and HEK293 cells as indicated in the manufacturer's manual to measure a compound's cytotoxicity on cells. In brief, in a white solid-bottom 96-well plate cells (5x10^3/well) were seeded and incubated with the respective compounds diluted in DMEM (Gibco, Carlsbad, CA, USA). After cell seeding viability reagent is added. Subsequently, cells were incubated with the compound and viability reagent containing medium at 37 °C, 5% CO2 for 72 h. The luminescence signal was determined after 1, 24, 48, and 72 hours on a GloMax®-Multi Detection System plate reader (Promega Corporation, Madison, Wl, USA).
In the case of `CCN(CCCNC(=O)c1ccc(-c2ccccc2)s1)Cc1ccccc1` [Compound 23, N-(3-(benzyl(ethyl)amino)propyl)-5-phenylthiophene-2-carboxamide], the “cell toxicity / tolerability (in words)” value is reported as “tolerated well”.

Tested on: platelets
Assay: Flow cytometry assay of platelet degranulation (P-Selectin surface expression in PRP)
Assay type: cell-based, human
Conditions: PRP pre-incubated with compound (100 µM), then CRP-XL (1 µg/mL); % ±SEM normalized to CRP-XL-treated vehicle PRP
Procedure: Platelet Degranulation Studies of Derivatives. Concurrent with the β-Arrestin recruitment potency optimization, the compounds were also tested and developed according to their functional activity. To determine the ability of a compound to modulate platelets, P-Selectin surface expression was measured. P-Selectin is a surface protein involved in cell adhesion mechanisms and can be found on activated platelets. After induction of platelet aggregation in platelet-rich plasma (PRP), treatment with the respective compound should therefore lead to a significant reduction in P-Selectin expression. […]. […]. Similarly, platelet degranulation potency was highly sensitive toward "linker"-changes (Structure C, Table 1). A distinct trend could not be registered. […]. Flow Cytometry Assay. The inhibition of platelet degranulation was determined via flow cytometry experiments. Platelets were treated with collagen-related peptide (CRP-XL, CambCol Laboratories, Cambridge, UK) and the platelets' activation state was determined (Geue, S.; Aurbach, K.; Manke, M.-C.; Manukjan, G.; Münzer, P.; Stegner, D.; Brähler, C.; Walker-Allgaier, B.; Märklin, M.; Borst, C. E.; Quintanilla-Fend, L.; Rath, D.; Geisler, T.; Salih, H. R.; Seizer, P.; Lang, F.; Nieswandt, B.; Gawaz, M.; Schulze, H.; Pleines, I.; Borst, O. Pivotal role of pdk1 in megakaryocyte cytoskeletal dynamics and polarization during platelet biogenesis. Blood 2019, 134, 1847-1858; and Malehmir, M.; Pfister, D.; Gallage, S.; Szydlowska, M.; Inverso, D.; Kotsiliti, E.; Leone, V.; Peiseler, M.; Surewaard, B. G. J.; Rath, D.; Ali, A.; Wolf, M. J.; Drescher, H.; Healy, M. E.; Dauch, D.; Kroy, D.; Krenkel, O.; Kohlhepp, M.; Engleitner, T.; Olkus, A.; Sijmonsma, T.; Volz, J.; Deppermann, C.; Stegner, D.; Helbling, P.; Nombela-Arrieta, C.; Rafiei, A.; Hinterleitner, M.; Rail, M.; Baku, F.; Borst, O.; Wilson, C. L.; Leslie, J.; O'Connor, T.; Wes-ton, C. J.; Chauhan, A.; Adams, D. H.; Sheriff, L.; Teijeiro, A.; Prinz, M.; Bogeska, R.; An-stee, N.; Bongers, M. N.; Notohamiprodjo, M.; Geisler, T.; Withers, D. J.; Ware, J.; Mann, D. A.; Augustin, H. G.; Vegiopoulos, A.; Milsom, M. D.; Rose, A. J.; Lalor, P. F.; Llovet, J. M.; Pinyol, R.; Tacke, F.; Rad, R.; Matter, M.; Djouder, N.; Kubes, P.; Knolle, P. A.; Unger, K.; Zender, L.; Nieswandt, B.; Gawaz, M.; Weber, A.; Heikenwalder, M. Platelet gpibα is a mediator and potential interventional target for nash and subsequent liver cancer. Nat. Med. 2019, 25, 641-655). Briefly, PRP was isolated from peripheral human blood collected in citrate-phosphate-dextrose solution with adenine (CPDA) and diluted with phosphate-buffered saline (PBS) (Sigma Aldrich Co., Ltd., St. Luis, Missouri, USA) supplemented with CaCl2 and MgCl2. PRP (106 platelets /sample) was preincubated with the respective compound (100 µM) for 15 min. Samples were treated with 1 µg/ml CRP-XL (CambCol Laboratories, Cambridge, UK) for 30 min at room temperature in the presence of the respective fluorochrome-conjugated antibody against P-Selectin (CD62P-FITC; Beckman Coulter, Brea, CA, USA). Subsequently, samples were fixed in 0.5% paraformaldehyde and analyzed on a FACS-Calibur flow cytometer (FACS-Caliber flow cytometer, Becton-Dickinson, East Rutherford, NJ, USA). Mean fluorescence intensity (MFI) was used as a quantitative measurement of platelet surface expression.
In the case of `O=C(NCCCN(CCCO)Cc1ccccc1)c1ccc(-c2ccccc2)s1` [Compound 28, N-(3-(benzyl(3-hydroxypropyl)amino)propyl)-5-phenylthiophene-2-carboxamide], the P-Selectin expression reduction is reported as 85±4%. `O=C(NCC1CCCN(Cc2ccccc2)C1)c1ccc(-c2ccccc2)s1` (centres unmarked) [Compound 39, N-((1-benzylpiperidin-3-yl)methyl)-5-phenylthiophene-2-carboxamide] gave a P-Selectin expression reduction of 42±9%. For `COc1cc(C(=O)N(CCC2CCCN2C)C/C(C)=C/c2ccccc2F)cc(OC)c1OC` (centres unmarked) [VUF11207, reference compound], the P-Selectin expression reduction was 65% and 65±6%. Work on `O=C(NCCCN(CCCc1ccccc1)Cc1ccccc1)c1ccc(-c2ccccc2)s1` [Compound 30, N-(3-(benzyl(3-phenylpropyl)amino)propyl)-5-phenylthiophene-2-carboxamide] yielded a P-Selectin expression reduction of 1±5%. `CC(C)(C)OC(=O)N1CCN(CCCNCc2csc(-c3ccccc3)n2)CC1` [Compound 47, tert-butyl 4-(3-(((2-phenylthiazol-4-yl)methyl)amino)propyl)piperazine-1-carboxylate] showed a P-Selectin expression reduction of 100%. `CCCN(CCCNC(=O)c1ccc(-c2ccccc2)s1)Cc1ccccc1` [Compound 26, N-(3-(benzyl(propyl)amino)propyl)-5-phenylthiophene-2-carboxamide] showed a P-Selectin expression reduction of 76±7%. `O=C(NCCCN(CCc1ccccc1)Cc1ccccc1)c1ccc(-c2ccccc2)s1` [Compound 29, N-(3-(benzyl(phenethyl)amino)propyl)-5-phenylthiophene-2-carboxamide] gave a P-Selectin expression reduction of 2±8%.

Target: T1, human ACKR3 (Homo sapiens, UniProt P25106)
T1 construct: expressed in transfected cells; host or cells: HEK293T
T1 sequence (P25106 whole entry): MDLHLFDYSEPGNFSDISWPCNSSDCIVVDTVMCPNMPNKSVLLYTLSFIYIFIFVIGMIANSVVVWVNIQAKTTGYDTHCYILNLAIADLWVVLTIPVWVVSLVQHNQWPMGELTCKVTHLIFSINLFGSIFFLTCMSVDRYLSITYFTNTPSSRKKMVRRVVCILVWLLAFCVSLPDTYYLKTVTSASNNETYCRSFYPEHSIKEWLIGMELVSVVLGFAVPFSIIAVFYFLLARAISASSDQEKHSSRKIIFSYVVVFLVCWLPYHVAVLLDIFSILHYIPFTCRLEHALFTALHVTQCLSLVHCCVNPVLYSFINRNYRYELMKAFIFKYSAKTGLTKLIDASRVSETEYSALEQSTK
T1 sequence (P49407 whole entry partner): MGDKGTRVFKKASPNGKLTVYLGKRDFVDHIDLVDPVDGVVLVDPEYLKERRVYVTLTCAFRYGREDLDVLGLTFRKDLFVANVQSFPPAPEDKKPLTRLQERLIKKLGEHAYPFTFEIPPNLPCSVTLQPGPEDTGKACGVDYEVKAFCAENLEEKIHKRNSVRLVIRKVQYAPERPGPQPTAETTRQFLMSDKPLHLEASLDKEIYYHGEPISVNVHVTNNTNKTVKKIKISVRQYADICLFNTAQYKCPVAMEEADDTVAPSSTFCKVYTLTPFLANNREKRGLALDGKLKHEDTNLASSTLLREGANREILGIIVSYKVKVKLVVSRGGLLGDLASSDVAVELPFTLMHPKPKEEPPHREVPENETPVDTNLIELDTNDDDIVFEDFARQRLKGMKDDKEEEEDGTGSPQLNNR
Assay: ACKR3 β-Arrestin recruitment assay (NanoLuc complementation, NanoBiT) in HEK293T cells
Assay type: cell-based
Conditions: ACKR3; HEK293T cells; average value of three independent experiments
Procedure: ACKR3 β-Arrestin Recruitment Assay. […] T.; Encell, L. P.; Wood, K. V. Nanoluc complementation reporter optimized for accurate measurement of protein interactions in cells. […] B.; Reynders, N.; Vanderplasschen, A.; Ollert, M.; Bouvier, M.; Szpakowska, M.; Chevigné, A. Proadrenomedullin n-terminal 20 peptides (pamps) are agonists of the chemokine scavenger receptor ACKR3/CXCR7. […] The prepared cells were then treated with compounds at concentrations ranging from 0.3 nM to 100 µM. Induction of β-Arrestin recruitment to receptors was evaluated by measuring bioluminescence with a Mithras LB940 luminometer (Berthold Technologies).
All curves were fitted to data points generated from the mean of at least three independent experiments. Results with values of p < 0.05 were considered statistically significant.
Work on `O=C(NCCCN(CCCO)Cc1ccccc1)c1ccc(-c2ccccc2)s1` [Compound 28, N-(3-(benzyl(3-hydroxypropyl)amino)propyl)-5-phenylthiophene-2-carboxamide] yielded an EC50 of 413 nM. `O=C(NCC1CCCN(Cc2ccccc2)C1)c1ccc(-c2ccccc2)s1` (centres unmarked) [Compound 39, N-((1-benzylpiperidin-3-yl)methyl)-5-phenylthiophene-2-carboxamide] showed an EC50 of 1220 nM. In the case of `COc1cc(C(=O)N(CCC2CCCN2C)C/C(C)=C/c2ccccc2F)cc(OC)c1OC` (centres unmarked) [VUF11207, reference compound], the EC50 is reported as 43.6 nM. In the case of `CCN(CCCNC(=O)c1ccc(-c2ccccc2)s1)Cc1ccccc1` [Compound 23, N-(3-(benzyl(ethyl)amino)propyl)-5-phenylthiophene-2-carboxamide], the EC50 is reported as 111 nM. `O=C(NCCCN(CCCc1ccccc1)Cc1ccccc1)c1ccc(-c2ccccc2)s1` [Compound 30, N-(3-(benzyl(3-phenylpropyl)amino)propyl)-5-phenylthiophene-2-carboxamide] gave an EC50 of 1060 nM. For `CC(C)(C)OC(=O)N1CCN(CCCNCc2csc(-c3ccccc3)n2)CC1` [Compound 47, tert-butyl 4-(3-(((2-phenylthiazol-4-yl)methyl)amino)propyl)piperazine-1-carboxylate], the EC50 was 2400 nM. Molecule `O=C(NCCCN(CCc1ccccc1)Cc1ccccc1)c1ccc(-c2ccccc2)s1` [Compound 29, N-(3-(benzyl(phenethyl)amino)propyl)-5-phenylthiophene-2-carboxamide] has an EC50 of 459 nM.

Same assay, conditions: efficacy of CXCL12 at 300 nM set as 100%; average of three independent experiments
For `COc1cc(C(=O)N(CCC2CCCN2C)C/C(C)=C/c2ccccc2F)cc(OC)c1OC` (centres unmarked) [VUF11207, reference compound], the “Efficacy (Emax) vs CXCL12” value was 95%. With `CC(C)(C)OC(=O)N1CCN(CCCNCc2csc(-c3ccccc3)n2)CC1` [Compound 47, tert-butyl 4-(3-(((2-phenylthiazol-4-yl)methyl)amino)propyl)piperazine-1-carboxylate] the “Efficacy (Emax) vs CXCL12” value was 89%.

Tested on: platelets
Assay: Light transmission platelet aggregation experiments
Assay type: cell-based
Conditions: preincubation with 100 µM ACKR3 agonist, activation with 2.5 µM ADP; compared to the control
Procedure: Platelet aggregation studies. To further evaluate the compounds inhibitory potential of platelet aggregation, aggregation experiments were conducted.
Aggregation experiments. For the light transmission aggregation experiments, citrate anticoagulated blood from healthy donors was used. To obtain platelet-rich plasma, whole blood was centrifuged at 210 × g for 20 min at room temperature. 1 × 10^8 platelets were preincubated with 100 µM ACKR3 agonist for 15 min at 37°C. Subsequently, platelets were activated with 2.5 µM ADP and aggregation was analyzed for 5 min at 1,000 rpm and 37°C using a light transmission aggregometer (Aggregometer 490-X; Chrono-Log Corp., Havertown, Pennsylvania, United States). Maximum platelet aggregation and the area under the curve were quantified using Aggrolink8 software (Chrono-Log Corp., Havertown, Pennsylvania, United States).
For `COc1cc(C(=O)N(CCC2CCCN2C)C/C(C)=C/c2ccccc2F)cc(OC)c1OC` (centres unmarked) [VUF11207, reference compound], the “platelet aggregation (in words)” value was “reduction of platelet aggregation”. With `CCN(CCCNC(=O)c1ccc(-c2ccccc2)s1)Cc1ccccc1` [Compound 23, N-(3-(benzyl(ethyl)amino)propyl)-5-phenylthiophene-2-carboxamide] the “platelet aggregation (in words)” value was “highest potency for platelet aggregation inhibition”.

Tested on: not listed separately
Assay: Kinetic solubility assay
Assay type: physicochemical
Conditions: PBS buffer with 1% DMSO, 4 °C, aqueous buffer, kinetic from dmso stock; 1% DMSO, 99% PBS buffer (pH 7.4)
Procedure: Solubility Assay. A 100 mL flask with phosphate-buffered saline was prepared from NaCl, KCI, Na2HPO4, KH2PO4, and distilled water. The buffer was adjusted to pH 7.4 with HCl. Afterwards, 10mM stock solutions of compounds in DMSO were prepared. 10 µL compound stock solution was added to 990 µL PBS in Eppendorf tubes. As a reference, 10 µL compound stock solution was added to 990 µL HPLC-grade MeOH in Eppendorf tubes. All tubes were centrifuged (16000 relative centrifugal force, 4 °C, 20 min). Subsequently, 600 µL supernatant was extracted carefully and filled into HPLC vials. […] Compounds solubility was calculated by AUC of compound in PBS divided by AUC of reference solution multiplied by concentration of the compound in solution.
`CCN(CCCNC(=O)c1ccc(-c2ccccc2)s1)Cc1ccccc1` [Compound 23, N-(3-(benzyl(ethyl)amino)propyl)-5-phenylthiophene-2-carboxamide] gave a solubility of 30 µg/mL.

Same assay, conditions: PBS buffer with 1% DMSO, 4 °C, aqueous buffer, kinetic from dmso stock; 1% DMSO, 99% PBS buffer (pH 7.4); average of three independent experiments ± SEM
Work on `CCN(CCCNC(=O)c1ccc(-c2ccccc2)s1)Cc1ccccc1` [Compound 23, N-(3-(benzyl(ethyl)amino)propyl)-5-phenylthiophene-2-carboxamide] yielded a solubility of 75 ± 1 µM.

Same assay, conditions: mixture 1 vol.% DMSO and 99 vol.% PBS buffer
For `O=C(NCCCN(CCCc1ccccc1)Cc1ccccc1)c1ccc(-c2ccccc2)s1` [Compound 30, N-(3-(benzyl(3-phenylpropyl)amino)propyl)-5-phenylthiophene-2-carboxamide], the “Solubility (in words)” value was “good solubility”. With `CCCN(CCCNC(=O)c1ccc(-c2ccccc2)s1)Cc1ccccc1` [Compound 26, N-(3-(benzyl(propyl)amino)propyl)-5-phenylthiophene-2-carboxamide] the “Solubility (in words)” value was “good solubility”.
